The values that follow come from patent publication US20030219712A1, “Addition of glycolysis inhibitor to a pathogen reduction and storage solution” (priority 2002, published 2003).

Format in all cases: cell-based
For test [1], the system named is pathogen reduced platelets. As to the kind of experiment: pH over time of a solution of pathogen reduced platelets. The conditions noted are these: 10 mM 2-deoxy-D-glucose; five day storage; platelets without it show rapid drop in pH (FIG. 3). The text has this: (§1) The following figures graph the quality of pathogen reduced platelets over a five day storage period. Platelets were separated from whole blood and collected using a blood collection device such as the COBE Spectra™ or TRIMA® apheresis systems available from Gambro BCT Inc., Lakewood, Colo., USA. However, it should be noted that any device known in the art for separating blood into components may be used to collect platelets without departing from the spirit and scope of the present invention.
(§2) Collected platelets were suspended in a volume of 278 mL of fluid containing […] riboflavin and either with or without a glycolytic inhibitor. 2-deoxy-D-glucose is one example of a glycolytic inhibitor which may be used in the present invention. The platelets were irradiated in a Sengewald bag (available from Sengewald Verpackungen GmbH & Co. KG) (however any bag known in the art may be used) at 7 J/cm^2 with a 320 nm broad band eximer light.
As shown, 10 mM 2-deoxy-D-glucose appears to maintain the pH of the platelets at approximately pH 7.40. Platelets without 2-deoxy-D-glucose experience a rapid drop in pH. Such results are expected because lactic acid is not produced at high rates if the glycolysis pathway is inhibited, and consequently, the pH of the solution remains at a relatively constant level.

Test [2] concerns pathogen reduced platelets. In words: Glucose consumption of pathogen reduced platelets over time. Conditions: 10 mM 2-deoxy-D-glucose; riboflavin, 7 J/cm^2 320 nm light; vs platelets containing no 2-deoxy-D-glucose (FIG. 2).
Source text: as §1, §2

Test [3] relates to pathogen treated platelets. As to the kind of experiment: GMP-140 expression on the surface of pathogen treated platelets (platelet activation) over five day storage. The conditions noted are these: solutions containing 2-deoxy-D-glucose, vs solutions without glycolytic inhibitors (FIG. 4).
Source text: as §1, §2
FIG. 4 is a graph showing GMP-140 expression on the surface of pathogen treated platelets over a five day storage period. GMP-140 is a marker which appears on the surface of platelets which are activated. When transfused into a recipient, platelets which are activated during storage have a higher percentage of being quickly removed from the recipient's circulatory system than non-activated platelets.

Test [4] deals with pathogen reduced platelets. As to the kind of experiment: Lactate production by pathogen reduced platelets over five day storage. The conditions noted are these: 10 mM 2-deoxy-D-glucose; five days in storage; riboflavin, 7 J/cm^2 320 nm light; vs platelets without 2-deoxy-D-glucose (FIG. 1).
Source text: as §1, §2

SMILES strings stand for the structures.

As for `O=CC[C@@H](O)[C@H](O)[C@H](O)CO` [2-deoxy-D-glucose], the “pH of the platelets maintained during storage” value in test [1] was around 7.40. In addition, in test [2], the glucose consumption entry is recorded as “slower rate”. The “percentage of GMP-140 expression” value in test [3] is given as “lower percentage”. Further, the “production of lactic acid” value in test [4] is given as “marked decrease”.
